Values quoted from earlier work, collected in PMC10413841, “Exploration of Thiourea-Based Scaffolds for the Construction of Bacterial Ureases Inhibitors” (ACS Omega, 2023).

What was measured:
[1] = target: purified enzyme from P. mirabilis; parameters: method as in PMID 25699141; settings: previously reported; read-out: Ki against purified enzyme from P. mirabilis; cited from earlier work
[2] = tested on: live cells of P. mirabilis PCM 543; parameters: method as in PMID 27550502; settings: 1 mM acetohydroxamate; remaining ureolysis in P. mirabilis PCM 543; cited from earlier work
[3] = target: T1, native S. pasteurii CCM 2056 urease (Sporosarcina pasteurii, UniProt P41020); parameters: method as in PMID 25699141; settings: previously reported; read-out: Ki against purified enzyme from S. pasteurii; cited from earlier work
T1 construct: The S. pasteurii CCM 2056 cells were used as the source of a native enzyme; endogenous in cells; host or cells: S. pasteurii CCM 2056 culture; endogenous enzyme purified in house from the sonicated cell extract by five-step chromatography
T1 sequence (P41022 whole entry): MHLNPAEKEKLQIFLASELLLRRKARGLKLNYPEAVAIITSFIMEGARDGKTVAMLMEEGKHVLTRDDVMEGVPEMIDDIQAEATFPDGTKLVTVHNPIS
T1 sequence (P41021 whole entry, further chain): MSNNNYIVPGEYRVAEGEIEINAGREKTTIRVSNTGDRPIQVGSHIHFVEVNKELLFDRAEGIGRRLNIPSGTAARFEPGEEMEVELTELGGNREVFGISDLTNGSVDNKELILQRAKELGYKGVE
T1 sequence (P41020 whole entry): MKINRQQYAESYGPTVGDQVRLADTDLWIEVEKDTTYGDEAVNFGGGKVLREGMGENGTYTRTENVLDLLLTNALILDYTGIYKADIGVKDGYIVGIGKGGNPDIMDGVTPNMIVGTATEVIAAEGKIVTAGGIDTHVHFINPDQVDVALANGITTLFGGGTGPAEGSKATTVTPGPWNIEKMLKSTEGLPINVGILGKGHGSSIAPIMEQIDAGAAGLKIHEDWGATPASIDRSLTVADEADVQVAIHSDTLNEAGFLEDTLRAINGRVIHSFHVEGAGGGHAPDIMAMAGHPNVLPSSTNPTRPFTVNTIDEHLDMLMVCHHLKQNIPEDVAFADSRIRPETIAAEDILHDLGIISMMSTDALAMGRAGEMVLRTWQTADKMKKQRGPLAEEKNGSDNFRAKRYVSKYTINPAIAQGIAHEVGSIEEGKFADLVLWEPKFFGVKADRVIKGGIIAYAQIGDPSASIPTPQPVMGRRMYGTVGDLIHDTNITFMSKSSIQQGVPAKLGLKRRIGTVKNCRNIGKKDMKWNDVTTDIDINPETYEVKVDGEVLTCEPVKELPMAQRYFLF

## CC(=O)NO [acetohydroxamate]
[1]
  Ki: 5.7 ± 0.4 µM
[2]
  whole-cell ureolysis reduced to: 42 ± 6%
[3]
  Ki: 3.3 ± 0.4 µM
